Values after ≈ are worked out from the molar mass of the structure shown. Counter-ions that a name gives are not always drawn.
Columns and labels:
[1] = physchem; type: physicochemical; settings: for Solubility: 3 days, pH 1.2; for solubility at 3 days: pH 1.2, simulated gastric fluid, thermodynamic from solid
Experimental: 3-5 mg of compound to be tested was added to 0.5 mL of aqueous HCl solution (pH=1.2) and the mixture was shaken for three days on a shaker; the sample was centrifuged for 5 min at 10,000 rpm in a centrifuge; a volumetric flask (50 mL) was loaded with 2 mL of supernatant and water was added to a volume at the graduation mark to prepare a sample solution; and 2.6 mg of sample was precisely weighed into a volumetric flask (50 mL), an appropriate amount of methanol was added to dissolve the sample, and water was added to a volume at the graduation mark and shaken well to give a control sample solution. 20 μL of sample solution and control sample solution were each injected, and tested by liquid chromatography. The solubility was calculated as follows:
Solubility (mg/mL)=C (control)*25*A (sample)/A (control)
C (control): concentration of the control sample
A (sample): peak area of the liquid chromatogram of the sample solution
A (control): peak area of the liquid chromatogram of the control sample solution

[2] = Drug metabolism test (pharmacokinetics, oral, mice); type: in vivo, ICR mice; settings: 10 mg/kg; for AUC(0-inf) / AUC(0-t) / Cmax / MRT / Tmax / half-life: male, ICR, mouse, po, orally (intragastric), plasma; for pharmacokinetic properties (in words): orally, judgement on Table 6
Experimental: 18 healthy male ICR mice with a body weight of 18-22 g were administered drugs by intragastric administration, with an administration dose of 10 mg/kg and an administration volume of 10 mL/kg, respectively. These mice were fasted for 12 h before the test and had free access to drinking water. These mice were fed 2 h after administration uniformly. 0.3 mL of blood was taken from the postocular venous plexus of a mouse at the set time points, placed in a heparinized test tube and centrifuged for 10 min at 3000 rpm; and plasma was separated and frozen in a refrigerator at −20° C. When measured, the sample was treated through the method for treating the plasma sample, and the drug concentration in plasma was determined by LC-MS/MS and the pharmacokinetic parameters of the drug were calculated.

[3] = target: T1, hERG potassium channel (Homo sapiens, UniProt Q12809); assay: Inhibitory effect on hERG potassium ion channel (whole cell patch clamp, HEK-293 cells); type: cell-based; settings: hERG potassium current, room temperature, read-out: IC50 (inhibition on hERG)
T1 construct: host or cells: HEK-293
T1 sequence (Q12809 whole entry): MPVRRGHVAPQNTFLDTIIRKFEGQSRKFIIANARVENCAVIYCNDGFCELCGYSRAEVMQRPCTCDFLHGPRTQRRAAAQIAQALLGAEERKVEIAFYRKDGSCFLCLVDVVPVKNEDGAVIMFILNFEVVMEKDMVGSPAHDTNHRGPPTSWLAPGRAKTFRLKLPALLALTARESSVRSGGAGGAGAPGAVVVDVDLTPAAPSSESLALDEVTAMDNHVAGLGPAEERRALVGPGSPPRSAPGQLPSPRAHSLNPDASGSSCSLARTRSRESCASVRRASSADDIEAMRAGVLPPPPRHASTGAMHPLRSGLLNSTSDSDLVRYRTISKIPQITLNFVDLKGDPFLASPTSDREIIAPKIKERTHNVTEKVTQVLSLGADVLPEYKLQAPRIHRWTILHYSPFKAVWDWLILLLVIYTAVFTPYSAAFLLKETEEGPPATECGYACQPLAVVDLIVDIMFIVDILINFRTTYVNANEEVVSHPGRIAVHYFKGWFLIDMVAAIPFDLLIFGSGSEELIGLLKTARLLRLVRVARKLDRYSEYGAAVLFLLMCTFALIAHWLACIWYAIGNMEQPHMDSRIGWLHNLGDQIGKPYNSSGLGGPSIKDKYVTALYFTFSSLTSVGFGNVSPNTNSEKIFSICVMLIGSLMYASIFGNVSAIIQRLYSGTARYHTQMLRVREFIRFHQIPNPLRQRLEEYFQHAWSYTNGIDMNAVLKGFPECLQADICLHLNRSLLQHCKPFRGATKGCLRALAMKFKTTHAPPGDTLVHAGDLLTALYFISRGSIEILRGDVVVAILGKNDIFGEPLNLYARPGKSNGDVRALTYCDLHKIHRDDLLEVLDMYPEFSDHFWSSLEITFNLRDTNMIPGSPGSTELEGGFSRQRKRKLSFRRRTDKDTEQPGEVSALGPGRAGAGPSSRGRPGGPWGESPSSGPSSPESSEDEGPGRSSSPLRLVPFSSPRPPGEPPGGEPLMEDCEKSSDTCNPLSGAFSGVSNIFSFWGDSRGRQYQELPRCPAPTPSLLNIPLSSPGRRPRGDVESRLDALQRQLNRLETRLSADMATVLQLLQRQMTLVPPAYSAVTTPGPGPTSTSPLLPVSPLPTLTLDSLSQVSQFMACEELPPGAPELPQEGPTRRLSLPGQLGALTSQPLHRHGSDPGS
Experimental: hERG potassium channel currents were recorded with the whole cell patch clamp technique at room temperature in HEK-293 cells (Creacell™, France) expressing hERG stably. A glass microelectrode with a tip resistance of about 1-4 MΩ was connected to the Axon 200A patch clamp amplifier. Clamp voltage and data record were controlled by a computer via the Axon DigiData 1322A A/D converter with the clampex 9.2 software; the cells were clamped at −80 mV; and the step voltage for inducing the hERG potassium current (IhERG) was changed from −80 mV to +20 mV by providing a 2 s depolarization voltage, repolarized to −40 mV and returned to −80 mV after 4 s. This voltage step was given respectively before and after administration to induce the hERG potassium current.
Data analysis and processing were performed with the PatchMaster, GraphPad Prism 5 and Excel softwares. The degree of inhibition of different compound concentrations on the hERG potassium current (hERG tail current peak induced at −50 mV) was calculated using the following formula:
Fractional block %=[1−(I/Io)]×100%
in the formula, Fractional block represents the percent inhibition of a compound on the hERG potassium current, and I and Io represent the magnitudes of the hERG potassium current […], respectively.
The IC50 of a compound was calculated using the following equation by fitting: […]
in the equation, I and Io represent the magnitudes of the hERG potassium current […], respectively; [C] is the compound concentration, and n is the Hill coefficient.

[4] = tested on: Mycobacterium tuberculosis H37Rv; assay: Activity test for Mycobacterium tuberculosis (MIC, H37Rv); type: cell-based; settings: for anti Mycobacterium tuberculosis activity (MIC against H37Rv), times of that of PA-824: relative to PA-824; for anti Mycobacterium tuberculosis activity (MIC against H37Rv), times of that of ethambutol: relative to ethambutol; for MIC: Mycobacterium tuberculosis H37Rv, liquid medium, 37° C., read-out: Minimum inhibitory concentration against H37Rv
Experimental: The tested strain H37Rv was transferred to liquid medium and cultured for 2 weeks at 37° C.; a small amount of the cultured bacterial solution was pipetted and placed in 4 mL of liquid medium; 10-20 sterile glass beads with a diameter of 2-3 mm were added; the mixture was shaken for 20-30 s and left to sediment for 10-20 min; the supernatant of the bacterial suspension was pipetted and adjusted to a turbidity of 1 MCF (equivalent to 1×10^7 CFU/mL) with the liquid medium for use. Each drug was dissolved to 1 mg/mL with an appropriate amount of DMSO and filtered with a 0.22 μm filter. Then, the solution was diluted to a desired experimental concentration with the liquid medium. The final concentrations of the tested drugs were set as follows: 0.001 μg/mL, 0.002 μg/mL, 0.0039 μg/mL, 0.0078 μg/mL, […], 0.03125 μg/mL, 0.0625 μg/mL, 0.125 μg/mL, 0.25 μg/mL, 0.5 μg/mL and 1 μg/mL, a total of 11 concentration gradients. 100 μL of each of the above-mentioned drug solutions was added to a 96-well microwell plate, then 100 μL bacterial solution with a concentration of 1 mg/mL was added to allow the drug concentration to reach the final set concentration, and cultured at 37° C. Three groups in parallel were set for each drug dilution with inoculation amounts of 100%, 10% and 1%, respectively, while no drug was added to the control group.

[5] = in vivo; cited from earlier work

`CN(Cc1cnc(N2CCN(c3ccc(OC(F)(F)F)cc3)CC2)nc1)[C@@H]1COc2nc([N+](=O)[O-])cn2C1.O=C(O)/C=C/C(=O)O` showed a melting point of 143 to 145 °C.
Compound `Cc1nc(N2CCN(c3ccc(OC(F)(F)F)cc3)CC2)ncc1CN[C@@H]1COc2nc([N+](=O)[O-])cn2C1` (as salt: methanesulfonate) [Compound 49, (S)-N-((4-methyl-2-(4-(4-(trifluoromethoxy)phenyl)piperazin-1-yl)pyrimidin-5-yl)methyl)-2-nitro-6,7-dihydro-5H-imidazo[2,1-b][1,3]oxazin-6-amine methanesulfonate] has a melting point of 175 to 177 °C.
In the case of `O=[N+]([O-])c1cn2c(n1)OC[C@@H](NCc1cnc(N3CCN(c4ccc(OC(F)(F)F)cc4)CC3)nc1)C2` [Compound 18], the Solubility [1] is reported as 1532.1 µg/mL (≈ 2940 µM), the solubility at 3 days [1] is reported as > 1000 µg/mL and the AUC(0-inf) [2] is reported as 16700 ng·h/mL. The AUC(0-t) [2] was 16000 ng·h/mL, the Cmax [2] was 1470 ng/mL and the MRT [2] was 7.11 h. The Tmax [2] was 2 h, the half-life [2] was 5.29 h and the IC50 [3] was 41.1 µM. The “anti Mycobacterium tuberculosis activity (MIC against H37Rv), times of that of PA-824” value [4] was 8 times, the “anti Mycobacterium tuberculosis activity (MIC against H37Rv), times of that of ethambutol” value [4] was 64 times and the MIC [4] was 7.8 ng/mL (≈ 0.015 µM).
For `CC1CN(c2ncc(CN[C@@H]3COc4nc([N+](=O)[O-])cn4C3)cn2)CCN1c1ccc(OC(F)(F)F)cc1` (stereo partly shown) [Compound 19], the Solubility [1] was 1321.8 µg/mL (≈ 2470 µM), the solubility at 3 days [1] was > 1000 µg/mL and the AUC(0-inf) [2] was 16800 ng·h/mL. It also gave an AUC(0-t) [2] of 16300 ng·h/mL, a Cmax [2] of 1780 ng/mL and an MRT [2] of 5.02 h. It also gave a Tmax [2] of 1.98 h, a half-life [2] of 3.17 h and an IC50 [3] of 38.3 µM. For the same compound, the “anti Mycobacterium tuberculosis activity (MIC against H37Rv), times of that of PA-824” value [4] was 8 times, the “anti Mycobacterium tuberculosis activity (MIC against H37Rv), times of that of ethambutol” value [4] was 64 times and the MIC [4] was 7.8 ng/mL (≈ 0.0146 µM).
With `CC1CN(c2ccc(OC(F)(F)F)cc2)CCN1c1ncc(CN[C@@H]2COc3nc([N+](=O)[O-])cn3C2)cn1` (stereo partly drawn) [Compound 20, (3S)—N-((6-(2-methyl-4-(4-(trifluoromethoxy)phenyl)piperazin-1-yl)pyrimidin-3-yl)methyl)-7-nitro-3,4-dihydro-2H-imidazo[2,1-b][1,3]oxazin-3-amine] the Solubility [1] was 1023.8 µg/mL (≈ 1920 µM), the solubility at 3 days [1] was > 1000 µg/mL and the AUC(0-inf) [2] was 21600 ng·h/mL. It also gave an AUC(0-t) [2] of 21500 ng·h/mL, a Cmax [2] of 2100 ng/mL and an MRT [2] of 4.82 h. The Tmax [2] was 2.33 h, the half-life [2] was 2.98 h and the “pharmacokinetic properties (in words)” value [2] was “excellent”. The “anti Mycobacterium tuberculosis activity (MIC against H37Rv), times of that of PA-824” value [4] was 32 times, the “anti Mycobacterium tuberculosis activity (MIC against H37Rv), times of that of ethambutol” value [4] was 256 times and the MIC [4] was 1.95 ng/mL (≈ 0.00365 µM).
In the case of `N#CC1(c2ccc(OC(F)(F)F)cc2)CCN(c2ncc(CN[C@@H]3COc4nc([N+](=O)[O-])cn4C3)cn2)CC1` [Compound 24, (S)-1-(5-(((7-nitro-3,4-dihydro-2H-imidazo[2,1-b][1,3]oxazin-3-yl)amino)methyl)pyrimidin-2-yl)-4-(4-(trifluoromethoxy)phenyl)piperidine-4-carbonitrile], the solubility at 3 days [1] is reported as 782 µg/mL (≈ 1440 µM), the AUC(0-inf) [2] is reported as 18300 ng·h/mL and the AUC(0-t) [2] is reported as 18200 ng·h/mL. The Cmax [2] was 1980 ng/mL, the MRT [2] was 4.45 h and the Tmax [2] was 2.17 h. For the same compound, the half-life [2] was 3.52 h, the “anti Mycobacterium tuberculosis activity (MIC against H37Rv), times of that of PA-824” value [4] was 16 times and the “anti Mycobacterium tuberculosis activity (MIC against H37Rv), times of that of ethambutol” value [4] was 128 times. For the same compound, the MIC [4] was 3.9 ng/mL (≈ 0.00716 µM).
In the case of `O=[N+]([O-])c1cn2c(n1)OC[C@@H](NCc1cnc(N3CCN(c4ccc(C(F)(F)F)cc4)CC3)nc1)C2` [Compound 31, (S)-2-nitro-N-((2-(4-(4-(trifluoromethyl)phenyl)piperazin-1-yl)pyrimidin-5-yl)methyl)-6,7-dihydro-5H-imidazo[2,1-b][1,3]oxazin-6-amine], the Solubility [1] is reported as 1354.8 µg/mL (≈ 2690 µM), the solubility at 3 days [1] is reported as > 1000 µg/mL and the AUC(0-inf) [2] is reported as 22500 ng·h/mL. It also gave an AUC(0-t) [2] of 22400 ng·h/mL, a Cmax [2] of 2140 ng/mL and an MRT [2] of 4.18 h. The Tmax [2] was 1.97 h, the half-life [2] was 3.05 h and the “pharmacokinetic properties (in words)” value [2] was “excellent”. For the same compound, the IC50 [3] was 39.5 µM, the “anti Mycobacterium tuberculosis activity (MIC against H37Rv), times of that of PA-824” value [4] was 8 times and the “anti Mycobacterium tuberculosis activity (MIC against H37Rv), times of that of ethambutol” value [4] was 64 times. The MIC [4] was 7.8 ng/mL (≈ 0.0155 µM).
In the case of `Cc1nc(N2CCN(c3ccc(OC(F)(F)F)cc3)CC2)ncc1CN[C@@H]1COc2nc([N+](=O)[O-])cn2C1` [Compound 36], the Solubility [1] is reported as 1123.7 µg/mL (≈ 2100 µM), the solubility at 3 days [1] is reported as > 1000 µg/mL and the AUC(0-inf) [2] is reported as 16700 ng·h/mL. It also gave an AUC(0-t) [2] of 16100 ng·h/mL, a Cmax [2] of 2020 ng/mL and an MRT [2] of 4.71 h. The Tmax [2] was 1.87 h, the half-life [2] was 2.87 h and the “anti Mycobacterium tuberculosis activity (MIC against H37Rv), times of that of PA-824” value [4] was 8 times. The “anti Mycobacterium tuberculosis activity (MIC against H37Rv), times of that of ethambutol” value [4] was 64 times and the MIC [4] was 7.8 ng/mL (≈ 0.0146 µM).
In the case of `C[C@]1(COc2ccc(N3CCC(Oc4ccc(OC(F)(F)F)cc4)CC3)cc2)Cn2cc([N+](=O)[O-])nc2O1` [OPC-67683], the “oral bioavailability (in words, background)” value [5] is given as “very low”.
In the case of `O=[N+]([O-])c1cn2c(n1)OC[C@@H](OCc1ccc(OC(F)(F)F)cc1)C2` [PA-824, reference compound], the solubility at 3 days [1] is given as 17 µg/mL (≈ 47.3 µM), the “oral bioavailability (in words, background)” value [5] is given as “low” and the MIC [4] is given as 62.5 ng/mL (≈ 0.174 µM).

— patent US20170334927A1 (Shanghai Sun-sail Pharmaceutical Science & Technology Co., …, priority 2014, published 2017)
